Assay results taken from patent publication US20250041461A1, “[177LU] LUTETIUM-PSMA I&T COMPOSITION AND DOSIMETRY, KIT, METHOD OF MAKING, AND METHOD OF USING THEREOF” (Curium US LLC, priority 2023, published 2025).
Several values for one entry are separate records, joined by “and”; a condition that tells them apart may be missing. Equal values may be shown once.

Test: Dosimetry sub-study, first 12 patients, cycle 1 (SPECT/CT, TIAC, OLINDA 2.2.3)
Type: in vivo, human
Conditions: for dose estimate, Mean: Eclipse; for Extrapolation of Absorbed Dose to 6 Cycles Assuming 7.4 GBq per cycle: kidneys; for Kidneys Absorbed Dose Assuming 7.4 GBq per cycle: one cycle; for Effective Dose Cycle 1: whole body
Procedure: Twelve subjects were administered a target activity of 7.4 GBq (mean 7.56±0.17 GBq) of [^177Lu]Lu-PSMA-I&T. Following the infusion, subjects underwent single photon emission computed tomography (SPECT)/computed tomography (CT) imaging at four timepoints (4 hours, 24 hours, 48 hours, and 168 hours). Image data was analyzed to compute time integrated activity coefficients (TIAC) in each organ of interest defined a priori in the independent review charter and in organs showing appreciable and meaningful [^177Lu]Lu-PSMA I&T activity. Segmented organs included kidneys, bladder, liver, lacrimal glands, salivary glands, intestine, lumbar vertebrae L2-L4, and whole body. To compute subject-specific organ doses, organ-level TIAC data were entered into Organ Level Internal Dose Assessment (OLINDA 2.2.3) and resulting organ doses for each target organ and whole-body effective dose were collated and averaged.
Patients received SPECT/CT imaging (anatomical coverage included the salivary gland in most of the patients and extended through the pelvis) following the injection of 7.4 (±10%) GBq of [^177Lu]Lu-PSMA-I&T (detailed injected doses are reported in Table 36). All patients completed the first treatment cycle, and the acquisition of images was carried out. To note, for patient 37-016 the 168 hours SPECT/CT timepoint wasn't acquired, whereas patient 12-004 48 hours scan was presenting unrealistically high values, and the 48 hours scan was therefore excluded from further analysis.
The imaging data was analyzed using Invicro's VivoQuant software, a validated software used in a 21 CFR § 11-compliant workflow. The general quantification approach was based on the principles detailed in the Medical Internal Radiation Dose (MIRD) Pamphlet No. 16, No 23, and No 26, as appropriate.
Each SPECT image was co-registered with its corresponding CT. Image calibration was performed to convert the counts measured on the SPECT images to activity (Bq). The same SPECT/CT system was used in each patient for the entirety of the dosimetry study.
Regions of interest (ROI) (kidneys, bladder, liver, lumbar vertebrae L2-L4, lacrimal glands, salivary glands (parotid and submandibular glands), and whole body) were drawn on each dataset by a trained image analyst. […] Lumbar vertebrae L2-L4 was delineated for all patients on the CT images to derive red marrow doses.^4 For kidneys, a ROI was drawn on the SPECT image encompassing all the uptake seen in the kidneys. Similarly for lacrimal glands, all the uptake observed on the SPECT image at the lacrimal glands' location was segmented. [^177Lu]Lu-PSMA-I&T distribution in a patient imaged over time is represented in FIG. 16.
Time-activity curves of the activity in each ROI as a function of time were plotted. These curves were normalized by the known injected activity to arrive at units of fraction of injected activity. Calculations of time-integrated activity coefficient (TIAC, in units of hours) were performed for each region of interest listed above.
Clearance of the tracer was derived from a data-appropriate fit of each organ time activity curve (TAC). Depending on the shape of the TAC, the data was fitted with the sum of one, two or three exponentials or using a rise and fall model. TIACs were calculated through analytical integration of the curve fit extrapolated to infinite. […] The remainder activity was determined by subtracting the cumulative organ TIACs from the whole body TIAC.
Organ TIACs were inputted into Organ Level Internal Dose Assessment, OLINDA 2.2.3 for the computation of organ and whole-body absorbed doses and effective dose (computed using ICRP-103 weighing factors). ICRP-89 derived male phantom was used for dose estimation. Organs and body weights as defined by ICRP-89 were scaled based on height and mass using the patient effective mass. Kidney volumes were measured for each patient on the CT images and used for the kidneys mass of the ICRP-89 phantom assuming a density of 1 g/ml. […]

[1] = individual subjects, listed as [^177Lu]Lu-PSMA-I&T

SMILES: O=C([O-])CC[C@H](NC(=O)N[C@@H](CCCCNC(=O)CCCCCCC(=O)NCCCC[C@@H](NC(=O)[C@@H](Cc1ccccc1)NC(=O)[C@@H](Cc1ccc(O)c(I)c1)NC(=O)CC[C@H](C(=O)[O-])N1CCN(CC(=O)[O-])CCN(CC(=O)[O-])CCN(CC(=O)[O-])CC1)C(=O)[O-])C(=O)[O-])C(=O)[O-].[177Lu+3].[H+].[H+].[H+].[H+].[H+] [^177Lu-PSMA I&T, (3S,7S,26R,29R,32R,37R)-29-benzyl-32-(4-hydroxy-3-iodobenzyl)-5,13,20,28,31,34-hexaoxo-37-(4,7,10-tris(carboxymethyl)-1,4,7,10-tetraazacyclododecan-1-yl)-4,6,12,21,27,30,33-heptaazaheptatriacontane-1,3,7,26,37-pentacarboxylic acid; lutetium-177 (III)]
- Mean whole body effective dose (12 patients, cycle 1): 0.095±0.048 mSv/MBq
- Whole-body time integrated activity coefficient, mean (12 patients, cycle 1): 24.1 ± 18.7 h
- absorbed dose, kidneys (12 patients, cycle 1): 0.43±0.18 Gy/GBq
- absorbed dose, lacrimal glands (12 patients, cycle 1): 0.67±0.33 Gy/GBq
- absorbed dose, left colon (12 patients, cycle 1): 0.54±0.42 Gy/GBq
- absorbed dose, rectum (12 patients, cycle 1): 0.52±0.40 Gy/GBq
- absorbed dose, red marrow (12 patients, cycle 1): 0.08±0.15 Gy/GBq
- absorbed dose, right colon (12 patients, cycle 1): 0.30±0.23 Gy/GBq
- absorbed dose, salivary glands (12 patients, cycle 1): 0.13±0.08 Gy/GBq
- absorbed dose, urinary bladder wall (12 patients, cycle 1): 0.38±0.03 Gy/GBq
- Whole-body time integrated activity coefficients, mean (12 patients, cycle 1, 7.4 GBq): 24.1 ± 18.7 h
- estimated absorbed dose for the kidneys after 6 cycles, max (12 patients, 7.4 GBq per cycle): 35.83 Gy
- estimated absorbed dose for the kidneys after 6 cycles, min (12 patients, 7.4 GBq per cycle): 9.9 Gy
- estimated mean absorbed dose for the kidneys after 6 cycles (12 patients, 7.4 GBq per cycle, listed as [^177Lu]Lu-PSMA-I&T): 19.3 Gy and 19.3±8.0 Gy
- Absorbed Dose, Mean (Adrenals, cycle 1, 12 patients): 0.03 Gy/GBq
- Absorbed Dose, Mean (Brain, cycle 1, 12 patients): 0.02 Gy/GBq
- Absorbed Dose, Mean (Esophagus, cycle 1, 12 patients): 0.02 Gy/GBq
- Absorbed Dose, Mean (Eyes, cycle 1, 12 patients): 0.02 Gy/GBq
- Absorbed Dose, Mean (Gallbladder Wall, cycle 1, 12 patients): 0.02 Gy/GBq
- dose estimate, Mean (Heart Wall): 0.02 Gy/GBq
- Absorbed Dose, Mean (Heart Wall, cycle 1, 12 patients): 0.02 Gy/GBq
- dose estimate, Mean (Kidneys): 0.43 Gy/GBq
- Absorbed Dose, Mean (Kidneys, cycle 1, 12 patients): 0.43 Gy/GBq
- dose estimate, Mean (Lacrimal gland): 0.67 Gy/GBq
- Absorbed Dose, Mean (Lacrimal glands (OLINDA sphere model), cycle 1): 0.67 Gy/GBq
- dose estimate, Mean (Left colon): 0.54 Gy/GBq
- Absorbed Dose, Mean (Left colon, cycle 1, 12 patients): 0.54 Gy/GBq
- dose estimate, Mean (Liver): 0.04 Gy/GBq
- Absorbed Dose, Mean (Liver, cycle 1, 12 patients): 0.04 Gy/GBq
- Absorbed Dose, Mean (Lungs, cycle 1, 12 patients): 0.02 Gy/GBq
- Absorbed Dose, Mean (Osteogenic Cells, cycle 1, 12 patients): 0.05 Gy/GBq
- Absorbed Dose, Mean (Pancreas, cycle 1, 12 patients): 0.02 Gy/GBq
- Absorbed Dose, Mean (Prostate, cycle 1, 12 patients): 0.02 Gy/GBq
- dose estimate, Mean (Rectum): 0.52 Gy/GBq
- Absorbed Dose, Mean (Rectum, cycle 1, 12 patients): 0.52 Gy/GBq
- dose estimate, Mean (Red Marrow): 0.08 Gy/GBq
- Absorbed Dose, Mean (Red Marrow, cycle 1, 12 patients): 0.08 Gy/GBq
- dose estimate, Mean (Right colon): 0.30 Gy/GBq
- Absorbed Dose, Mean (Right colon, cycle 1, 12 patients): 0.30 Gy/GBq
- Absorbed Dose, Mean (Salivary Glands, cycle 1, 12 patients): 0.13 Gy/GBq
- dose estimate, Mean (Salivary glands): 0.13 Gy/GBq
- Absorbed Dose, Mean (Small Intestine, cycle 1, 12 patients): 0.06 Gy/GBq
- dose estimate, Mean (Spleen): 0.03 Gy/GBq
- Absorbed Dose, Mean (Spleen, cycle 1, 12 patients): 0.03 Gy/GBq
- Absorbed Dose, Mean (Stomach Wall, cycle 1, 12 patients): 0.02 Gy/GBq
- Absorbed Dose, Mean (Testes, cycle 1, 12 patients): 0.02 Gy/GBq
- Absorbed Dose, Mean (Thymus, cycle 1, 12 patients): 0.02 Gy/GBq
- dose estimate, Mean (Thyroid): 0.02 Gy/GBq
- Absorbed Dose, Mean (Thyroid, cycle 1, 12 patients): 0.02 Gy/GBq
- Absorbed Dose, Mean (Total Body, cycle 1, 12 patients): 0.03 Gy/GBq
- Absorbed Dose, Mean (Urinary Bladder Wall, cycle 1, 12 patients): 0.38 Gy/GBq
- dose estimate, Mean (Urinary bladder wall): 0.38 Gy/GBq
- Whole Body TIAC (cycle 1, Mean of 12 subjects): 24.1 h
- Kidneys Absorbed Dose (cycle 1, Mean of 12 subjects (Table 41)): 0.43 Gy/GBq
- Kidneys Absorbed Dose (cycle 1, individual subjects (Table 41), listed as [^177Lu]Lu-PSMA-I&T): 0.64 Gy/GBq and 0.34 Gy/GBq and 0.81 Gy/GBq and 0.29 Gy/GBq and 0.27 Gy/GBq (2×) and 0.22 Gy/GBq and 0.48 Gy/GBq and 0.32 Gy/GBq and 0.54 Gy/GBq and 0.41 Gy/GBq and 0.57 Gy/GBq
- Whole Body TIAC (cycle 1, individual subjects, listed as [^177Lu]Lu-PSMA-I&T): 8.2 h and 17.2 h and 41.7 h and 14.4 h and 69.7 h and 43.7 h and 11.1 h and 12.6 h and 19.7 h and 14.2 h and 8.5 h and 27.6 h
- Kidneys Absorbed Dose (cycle 1, individual subjects, listed as [^177Lu]Lu-PSMA-I&T, absorbed dose per injected activity, Gy/GBq): 0.27 Gy/GBq (2×) and 0.22 Gy/GBq and 0.48 Gy/GBq and 0.32 Gy/GBq and 0.54 Gy/GBq and 0.41 Gy/GBq and 0.57 Gy/GBq and 0.64 Gy/GBq and 0.34 Gy/GBq and 0.81 Gy/GBq and 0.29 Gy/GBq
- Kidneys Absorbed Dose (cycle 1, individual subjects, listed as [^177Lu]Lu-PSMA-I&T, total absorbed dose, Gy): 2.00 Gy and 2.36 Gy and 3.99 Gy and 3.08 Gy and 4.48 Gy and 2.26 Gy
- Extrapolation of Absorbed Dose to 6 Cycles Assuming 7.4 GBq per cycle (Mean of 12 subjects): 19.3 Gy
- Extrapolation of Absorbed Dose to 6 Cycles Assuming 7.4 GBq per cycle [1]: 28.5 Gy and 15.0 Gy and 35.8 Gy and 13.0 Gy and 11.8 Gy and 9.9 Gy and 21.3 Gy and 12.0 Gy and 14.0 Gy and 23.8 Gy and 18.0 Gy and 25.1 Gy
- Kidneys Absorbed Dose Assuming 7.4 GBq per cycle (Mean of 12 subjects): 3.2 Gy
- Kidneys Absorbed Dose Assuming 7.4 GBq per cycle [1]: 4.8 Gy and 2.5 Gy and 6.0 Gy and 2.2 Gy and 2.0 Gy (2×) and 1.7 Gy and 3.6 Gy and 2.3 Gy and 4.0 Gy and 3.0 Gy and 4.2 Gy
- Effective Dose Cycle 1 (Mean of 12 subjects): 0.09 mSv/MBq
- Effective Dose Cycle 1 [1]: 0.03 mSv/MBq (2×) and 0.09 mSv/MBq and 0.12 mSv/MBq and 0.11 mSv/MBq (2×) and 0.16 mSv/MBq and 0.19 mSv/MBq and 0.07 mSv/MBq (2×) and 0.06 mSv/MBq and 0.08 mSv/MBq
